Measured values from ChEMBL document CHEMBL4373693, “Virtual Screening Approach and Investigation of Structure-Activity Relationships To Discover Novel Bacterial Topoisomerase Inhibitors Targeting Gram-Positive and Gram-Negative Pathogens” (J Med Chem, 2019).
In brackets after ≈: the same amount, converted by molar mass. One block for each compound: values may come before it.

Tests used:
[1] = system: Escherichia coli; experiment: Antibacterial activity against Escherichia coli; type: functional
[2] = target: DNA gyrase (Staphylococcus aureus, UniProt P0A0K8+P20831); experiment: Inhibition of Staphylococcus aureus DNA gyrase; type: protein-complex assay
[3] = target: T1, DNA gyrase (Escherichia coli, UniProt P0AES4+P0AES6); experiment: Inhibition of Escherichia coli DNA gyrase; type: protein-complex assay
[4] = target: DNA gyrase subunit A (Staphylococcus aureus, UniProt P20831); experiment: Inhibition of Staphylococcus aureus DNA gyrase A assessed as reduction in enzyme-mediated supercoiling of relaxed pBR322 DNA measured after 60 mins by electrophoresis method
[5] = target: DNA gyrase subunit A (Escherichia coli K-12, UniProt P0AES4); experiment: Inhibition of Escherichia coli DNA gyrase A assessed as reduction in enzyme-mediated supercoiling of relaxed pBR322 DNA measured after 60 mins by electrophoresis method
[6] = target: T2, DNA topoisomerase 4 subunit A (Escherichia coli K-12, UniProt P0AFI2); experiment: Inhibition of Escherichia coli DNA topoisomerase 4 subunit ParC assessed as reduction in decatenation of kinetoplast DNA incubated for 60 mins by ethidium bromide staining based gel electrophoresis method
T2 sequence (P0AFI2 whole entry): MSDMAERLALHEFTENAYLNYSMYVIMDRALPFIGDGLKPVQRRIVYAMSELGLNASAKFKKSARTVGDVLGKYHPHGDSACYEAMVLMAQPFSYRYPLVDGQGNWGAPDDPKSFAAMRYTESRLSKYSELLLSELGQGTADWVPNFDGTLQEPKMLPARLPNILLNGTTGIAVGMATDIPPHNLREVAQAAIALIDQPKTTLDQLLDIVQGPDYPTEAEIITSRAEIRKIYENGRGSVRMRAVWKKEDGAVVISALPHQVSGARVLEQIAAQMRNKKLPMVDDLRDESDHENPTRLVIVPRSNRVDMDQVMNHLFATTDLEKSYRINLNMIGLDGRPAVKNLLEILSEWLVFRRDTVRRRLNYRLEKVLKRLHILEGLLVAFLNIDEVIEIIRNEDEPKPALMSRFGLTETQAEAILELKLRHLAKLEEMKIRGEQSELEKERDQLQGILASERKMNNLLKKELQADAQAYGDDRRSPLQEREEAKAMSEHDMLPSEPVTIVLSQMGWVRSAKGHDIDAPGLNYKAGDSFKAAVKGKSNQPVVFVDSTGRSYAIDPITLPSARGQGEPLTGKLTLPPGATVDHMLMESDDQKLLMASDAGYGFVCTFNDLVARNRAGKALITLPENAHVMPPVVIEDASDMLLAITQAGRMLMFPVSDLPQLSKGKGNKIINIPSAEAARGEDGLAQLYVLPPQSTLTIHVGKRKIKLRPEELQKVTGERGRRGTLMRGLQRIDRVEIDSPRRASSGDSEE

[7] = target: DNA topoisomerase 4 subunit A (Staphylococcus aureus, UniProt P0C1U9); experiment: Inhibition of Staphylococcus aureus DNA topoisomerase 4 subunit ParC assessed as reduction in decatenation of kinetoplast DNA incubated for 60 mins by ethidium bromide staining based gel electrophoresis method
[8] = Inhibition of Escherichia coli DNA topoisomerase 4
[9] = system: Staphylococcus aureus; experiment: Antibacterial activity against Staphylococcus aureus; type: functional
[10] = Inhibition of Escherichia coli topoisomerase 4 after 24 hrs by ATPase assay
[11] = system: Escherichia coli; experiment: Antibacterial activity against Escherichia coli ATCC 25922 by CLSI method; type: functional
[12] = target: T1, DNA gyrase; experiment: Inhibition of Escherichia coli DNA gyrase assessed as reduction in enzyme-mediated supercoiling of relaxed plasmid by fluorescence polarization assay; type: protein-complex assay

- MIC [1]: 0.06 µg/mL (≈ 0.13 µM)
- IC50 [2]: 14 nM
- IC50 [3]: 100 nM
SMILES: COc1ccc2ncc(C#N)c(CCN3CCC(NCc4cc5c(cn4)OCS5)CC3)c2c1

- IC50 [4]: 1000 nM
- IC50 [5]: 11000 nM
- IC50 [6]: 2200 nM
- IC50 [7]: 18000 nM
SMILES: COc1ccc2ncc(F)c([C@@H](O)CC[C@@H]3CCN(CCSc4cccs4)C[C@@H]3C(=O)O)c2c1

- IC50 [8]: 140 nM
- MIC [9]: 0.12 µg/mL (≈ 0.238 µM)
- MIC [1]: 0.12 µg/mL (≈ 0.238 µM)
- IC50 [3]: 1660 nM
SMILES: COc1ccc2c3conc3c(=O)n(CCN3CCC(NCc4ccc5c(n4)NC(=O)CO5)CC3)c2c1

- MIC [9]: 1 µg/mL (≈ 2.14 µM)
- IC50 [10]: 3 nM
- MIC90 [11]: 2 µg/mL (≈ 4.28 µM)
- IC50 [12]: 20 nM
SMILES: N[C@@H](Cn1c(=O)cnc2ccc(F)cc21)C1CCC(NCc2ncc3c(n2)OCC(=O)N3)CC1 (stereo not given in full)
